# Source: US20250230193A1, “CYCLIC COMPOUND HAVING SELECTIVE KRAS INHIBITORY EFFECT ON HRAS AND NRAS” (CHUGAI SEIYAKU KABUSHIKI KAISHA, priority 2022, published 2025)
# Where a SMILES comes first, the peptide text is derived from it. Bridges are numbered along the chain shown (N, C = ends). [ ]: non-standard residue; d: D form. The star is where a group is joined. hPhe(3-Cl-4-CF3) = N[C@@H](CCc1ccc(C(F)(F)F)c(Cl)c1)C(=O)O; NPrPhe(4-CF3) = CCCN[C@@H](Cc1ccc(C(F)(F)F)cc1)C(=O)O; NMeGly(cPent) = CN[C@H](C(=O)O)C1CCCC1; Pro(4,4-F2) = O=C(O)[C@@H]1CC(F)(F)CN1; Hyp = O=C(O)[C@@H]1C[C@@H](O)CN1; NMeL = CN[C@@H](CC(C)C)C(=O)O; Morpholide = C1CN(*)CCO1; Ac5c = NC1(C(=O)O)CCCC1; Aze = O=C(O)[C@@H]1CCN1; Ac4c = NC1(C(=O)O)CCC1; NEtG = CCNCC(=O)O; Sar = CNCC(=O)O
# Columns and labels:
# [1] = biological target: GDP-bound NRAS wild-type protein (Homo sapiens, UniProt P01111); assay: Binding to NRAS by surface plasmon resonance (SPR), Single Cycle Kinetics; settings: for NRAS/KRAS (ratio of KD value with respect to NRAS to KD value with respect to KRAS) / NRAS/KRAS (ratio of KD for GDP-bound NRAS wild-type to KD for KRAS): SPR; for NRAS/KRAS (ratio of KD value with respect to NRAS to KD value with respect to KRAS): GDP-bound NRAS wild-type vs GDP-bound KRAS wild-type; for NRAS/KRAS (ratio of KD value with respect to GDP-bound NRAS wild-type protein to KD value with respect to KRAS): class symbols
# [2] = biological target: GDP-bound HRAS wild-type protein (Homo sapiens, UniProt P01112); assay: Binding to HRAS by surface plasmon resonance (SPR), Single Cycle Kinetics; settings: for HRAS/KRAS (ratio of KD value with respect to HRAS to KD value with respect to KRAS) / HRAS/KRAS (ratio of KD for GDP-bound HRAS wild-type to KD for KRAS): SPR; for HRAS/KRAS (ratio of KD value with respect to HRAS to KD value with respect to KRAS): GDP-bound HRAS wild-type vs GDP-bound KRAS wild-type; for HRAS/KRAS (ratio of KD value with respect to GDP-bound HRAS wild-type protein to KD value with respect to KRAS): class symbols
# Sequence of GDP-bound HRAS wild-type protein (P01112 whole entry): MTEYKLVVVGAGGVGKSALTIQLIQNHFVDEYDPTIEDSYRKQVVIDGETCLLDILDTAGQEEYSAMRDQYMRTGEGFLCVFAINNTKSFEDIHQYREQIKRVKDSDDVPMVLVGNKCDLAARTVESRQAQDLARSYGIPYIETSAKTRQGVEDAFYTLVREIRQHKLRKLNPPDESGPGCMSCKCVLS
# Sequence of GDP-bound NRAS wild-type protein (P01111 whole entry): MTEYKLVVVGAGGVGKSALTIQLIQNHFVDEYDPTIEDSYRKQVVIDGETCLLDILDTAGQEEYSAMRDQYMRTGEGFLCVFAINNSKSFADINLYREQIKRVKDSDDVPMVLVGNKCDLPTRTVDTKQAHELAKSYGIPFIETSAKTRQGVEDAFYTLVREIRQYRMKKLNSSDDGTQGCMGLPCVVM
smiles,measurement,setting,value
C#CC[C@H]1C(=O)N[C@@H]([C@@H](C)CC)C(=O)N(C)CC(=O)N(C)[C@H]2C/C=C\CCN(C2=O)[C@@H](Cc2ccc(C(F)(F)F)cc2)C(=O)N(C)CC(=O)N[C@@H](CCc2ccc(C(F)(F)F)c(OC)c2)C(=O)N2C[C@H](OCC)C[C@H]2C(=O)NC2(CC(C)(C)C2)C(=O)N(C)[C@@H](C2CCCC2)C(=O)N(C)[C@H](C(=O)N(C)CCC)CC(=O)N1C [PP2053],NRAS/KRAS (ratio of KD value with respect to NRAS to KD value with respect to KRAS),[1],A (a compound having 10 or more and less than 20 is denoted as A)
same,HRAS/KRAS (ratio of KD value with respect to HRAS to KD value with respect to KRAS),[2],A (a compound having 10 or more and less than 20 is denoted as A)
CCC[C@H]1C(=O)N[C@@H]([C@@H](C)CC)C(=O)N(C)CC(=O)N(C)[C@H]2C/C=C\CCN(C2=O)[C@@H](Cc2ccc(C)cc2)C(=O)N(C)CC(=O)N[C@@H](CCc2ccc(Cl)c(Cl)c2)C(=O)N2C[C@H](OCC)C[C@H]2C(=O)NC2(CC(C)(C)C2)C(=O)N(C)[C@@H](CC2CC2)C(=O)N(C)[C@H](C(=O)N(C)C)CC(=O)N1C [PP2799],NRAS/KRAS (ratio of KD value with respect to GDP-bound NRAS wild-type protein to KD value with respect to KRAS),[1],A (a compound having 10 or more and less than 20 is denoted as A)
same,HRAS/KRAS (ratio of KD value with respect to GDP-bound HRAS wild-type protein to KD value with respect to KRAS),[2],A (a compound having 10 or more and less than 20 is denoted as A)
CCC[C@H]1C(=O)N[C@@H]([C@@H](C)CC)C(=O)N(C)CC(=O)N(C)[C@H]2C/C=C\CCN(C2=O)[C@@H](Cc2ccc(C(F)(F)F)cc2)C(=O)N(C)CC(=O)N[C@@H](CCc2cc(Cl)c3sccc3c2)C(=O)N2C[C@H](OCC)C[C@H]2C(=O)NC2(CC(C)(C)C2)C(=O)N(C)[C@@H](C(CC)CC)C(=O)N(C)[C@H](C(=O)N(C)C)CC(=O)N1C [PP2888],NRAS/KRAS (ratio of KD value with respect to GDP-bound NRAS wild-type protein to KD value with respect to KRAS),[1],AA (a compound having 20 or more is denoted as AA)
same,HRAS/KRAS (ratio of KD value with respect to GDP-bound HRAS wild-type protein to KD value with respect to KRAS),[2],A (a compound having 10 or more and less than 20 is denoted as A)
CCC(CC)[C@H]1C(=O)N(C)[C@H](C(=O)N(C)C)CC(=O)N(C)[C@@H](COC)C(=O)N[C@@H]([C@@H](C)CC)C(=O)N(C)CC(=O)N(C)[C@H]2C/C=C\CCN(C2=O)[C@@H](CC2CCC(F)(F)CC2)C(=O)N(C)CC(=O)N[C@@H](CCc2cc(F)c(C(F)(F)F)c(F)c2)C(=O)N2C[C@@H](C)C[C@H]2C(=O)NC2(CC(C)(C)C2)C(=O)N1C [PP2448],NRAS/KRAS (ratio of KD value with respect to NRAS to KD value with respect to KRAS),[1],A (a compound having 10 or more and less than 20 is denoted as A)
same,HRAS/KRAS (ratio of KD value with respect to HRAS to KD value with respect to KRAS),[2],A (a compound having 10 or more and less than 20 is denoted as A)
"CCCN1C(=O)CN(C)C(=O)CN(CC)C(=O)[C@H]([C@@H](C)CC)NC(=O)[C@H](CC(C)C)N(C)C(=O)C[C@@H](C(=O)N(C)C)NC(=O)[C@H](C2CCCC2)N(C)C(=O)C2(CCC2)NC(=O)[C@@H]2CC(F)(F)CN2C(=O)[C@H](CCc2ccc(C(F)(F)F)c(Cl)c2)NC(=O)CN(C)C(=O)[C@@H]1Cc1ccc(C(F)(F)F)cc1 [PP0370] ([NMeL]I[NEtG][Sar][NPrPhe(4-CF3)][Sar][hPhe(3-Cl-4-CF3)][Pro(4,4-F2)][Ac4c][NMeGly(cPent)]D-NMe2; lactam N-11)",NRAS/KRAS (ratio of KD for GDP-bound NRAS wild-type to KD for KRAS),[1],B (a compound having 3 or more and less than 10 is denoted as B)
same,HRAS/KRAS (ratio of KD for GDP-bound HRAS wild-type to KD for KRAS),[2],C (A compound having a KD ratio of 0.1 or more and less than 3 is denoted as C)
CC[C@H](C)[C@@H]1NC(=O)[C@H](CC(C)C)N(C)C(=O)C[C@@H](C(=O)N2CCOCC2)N(C)C(=O)[C@H](C2CCCC2)N(C)C(=O)C2(CCC2)NC(=O)[C@@H]2C[C@@H](O)CN2C(=O)[C@H](CCc2cc(F)c(C(F)(F)F)c(F)c2)NC(=O)CN(C)C(=O)[C@H](Cc2ccc(C(F)(F)F)cc2)N2CCCC[C@@H](C2=O)N(C)C(=O)CN(C)C1=O [PP0868],NRAS/KRAS (ratio of KD value with respect to NRAS to KD value with respect to KRAS),[1]; KD ratio,C (A compound having a KD ratio of 0.1 or more and less than 3 is denoted as C)
same,HRAS/KRAS (ratio of KD value with respect to HRAS to KD value with respect to KRAS),[2]; KD ratio,B (a compound having 3 or more and less than 10 is denoted as B)
CCCN1C(=O)CN(C)C(=O)[C@@H]2CCN2C(=O)[C@H]([C@@H](C)CC)NC(=O)[C@H](CC(C)C)N(C)C(=O)C[C@@H](C(=O)N2CCOCC2)NC(=O)[C@H](C2CCCC2)N(C)C(=O)C2(CCCC2)NC(=O)[C@@H]2C[C@@H](OCC)CN2C(=O)[C@H](CCc2ccc(C(F)(F)F)c(Cl)c2)NC(=O)CN(C)C(=O)[C@@H]1Cc1ccc(C(F)(F)F)cc1 [PP0341] ([NMeL]I[Aze][Sar][NPrPhe(4-CF3)][Sar][hPhe(3-Cl-4-CF3)][Hyp](Et)[Ac5c][NMeGly(cPent)]D-Morpholide; lactam N-11),NRAS/KRAS (ratio of KD for GDP-bound NRAS wild-type to KD for KRAS),[1],B (a compound having 3 or more and less than 10 is denoted as B)
same,HRAS/KRAS (ratio of KD for GDP-bound HRAS wild-type to KD for KRAS),[2],B (a compound having 3 or more and less than 10 is denoted as B)
